Source: US5215744A, “Methods for the treatment of tumors” (Boehringer Ingelheim GmbH, priority 1987, dated 1993)
Entries after “also recorded” stand apart in the source; their conditions may differ.

What was measured:
[1] = system: PLC/PRF/5 cells; assay: Microscopic study of morphology; type: cell-based, human; settings: combination treatment, dipyridamole 0.1 μM and HuIFN-β 10 units/ml (FIG. 7)
From the text: (§1) Cells seeded in test dishes were observed and photographed using OLYMPUS IMT-2 ([…] amplification).

[2] = system: MM-1CB; assay: Microscopic study of morphology; type: cell-based, human; settings: dipyridamole 0.1 μM with HuIFN-β 10 units/ml, 6 days (FIG. 2)
From the text: as §1

[3] = system: KT cells; assay: Microscopic study of morphology; type: cell-based, human; settings: combination treatment, dipyridamole 0.1 μM and HuIFN-α 10 units/ml (FIG. 6)
From the text: as §1

[4] = system: SEKI-F melanoma cells; assay: Survival after continuous exposure to dipyridamole and interferon β; type: cell-based, human
From the text: Culture and the exposure conditions were the same as described in the previous manuscript.

[5] = system: plasminogen activator-like protease; assay: Protease activity after dipyridamole exposure (^125 I-fibrin release); type: cell-based, human (MM-1CB cells); settings: dipyridamole alone; MM-1CB, 30 min (FIG. 13)
From the text: Assay methods were similar to those described elsewhere (Suzuki et al., Mutation Res. 198:207-214 (1988)). Results were expressed as the total amount of ^125 I-radioactivity released from the labelled fibrin per protein contents.

[6] = system: activity of N-phosphoracetyl-L-aspartate (PALA); settings: in vitro and in vivo; cited from earlier work
[7] = system: KT cells; assay: DNA synthetic activity test ([^3 H]dTHD uptake into acid insoluble materials); type: cell-based, human; settings: 0.1 μM dipyridamole with HuIFN-β (FIG. 8)
From the text: (§2) Four established cell lines were used. These were MM-1CB, derived from tissues of malignant melanoma (level IV, pT4 N0 M0) in a person (Jpn. J. Dermatol. 96:947 (1986)); KT, derived from metastatic brain tumor in a person (J. Rad. Res. 26:59 (1985) and The 44th Meeting of Japanese Cancer Association, 718 (1985)); PLC/PRF/5, derived from human hepatoma (Brit. J. Cancer 34:509-515 (1976)) and a transformed cell line RSa (Virology 135:20-29 (1984), and J. Natl. Cancer Inst. 56:919-926 (1976)).
[^3 H]dTHD uptake into acid insoluble materials were estimated in KT and RSa cells treated with the various agents, as described in J. Gen. Virol. 67:651-661 (1986).

[8] = system: DNA of MM-1CB cells; assay: Alkaline sucrose gradient assay (DNA damage); type: cell-based, human; settings: 10 μM dipyridamole 24 h then 10^3 IU/ml IFNβ 24 h (FIG. 12)
Method: Cells (2×10^5), prelabelled with [^14 C]Thymidine, were seeded in 60 mm culture dishes and then cultured with and without agents. After the indicated tie cells were scraped off from the dishes and suspended in ice-cold phosphate-buffer saline solution containing 10 mM EDTA.
The cell suspensions were then exposed to 100R of X-rays in order to facilitate the unwinding and separation of DNA strands, and the solution containing SDS was applied to the cells, 2% of the final concentration of sodium dodecil sulfate (SDS).
The cell lysates were layered on alkaline solution with 5-20% sucrose gradients containing 0.1M NaOH and 0.1M NaCl. Then the gradients were immediately centrifuged at 10,000 rpm for 17 hr at 20° C. in a Hitachi RPS55T rotor.
After centrifugation, solutions were fractionated and collected onto Whatmann 17 CHROMA paper strips. Radioactivity of acid-insoluble materials on the strips were counted in toluene based scintillator. The percentage of the total dpm in each fraction was calculated taking the input dpm as 100%.
C 10^3 IU/ml IFNβ exposure for 48 hr;

[9] = system: interferon effect; assay: Enhancement of interferon effect in vitro; type: cell-based
[10] = system: LIZIO leukemia; settings: with MTX; cited from earlier work
[11] = system: chinese hamster ovary cells; settings: in vitro and in vivo; cited from earlier work
[12] = system: interferon in mice; settings: I.V.; cited from earlier work
[13] = system: salvage pathway of DNA synthesis; settings: cited from earlier work
[14] = system: ridgway osteogenic sarcoma; settings: with MTX; cited from earlier work
[15] = system: metastasis; settings: cited from earlier work
[16] = system: human ovarian carcinoma cell line; settings: cited from earlier work
[17] = system: PLC/PRF/5 cells; assay: Cell proliferation inhibition test (trypan-blue exclusion), continuous exposure; type: cell-based, human; settings: HuIFN and dipyridamole (FIG. 5)
From the text: as §2
(§3) Cells were cultured with Eagle's minimal essential medium (EMEM) containing 10% fetal bovine serum (GIBCO, U.S.A.) and antibiotics ([…] streptomycin/ml and 100 units penicillin G/ml), in an incubator at 37° C. under 5% CO2.
(§4) Other chemical agents were purchased from the Nakarai Co., Ltd., Japan.
(§5) Changes of medium with and without agents were carried out every other day. The viable cells were determined by trypan-blue exclusion test and counted with a hemocytometer. The survival percentage ratio was expressed as (counts of viable cells in test dishes per counts of viable cells in control dishes) x 100%, as described elsewhere in, e.g., Mutation Research 106:357-376 (1982) and […]. 67:651-661 (1986).
(§6) Most of experiments were carried out under a dim light or in the dark. Results were expressed as the mean of values obtained from more than two independent experiments.

[18] = system: MM-1CB; assay: as above; type: cell-based, human
From the text: as §2, §3, §4, §5, §6

[19] = system: KT cells; assay: as above; type: cell-based, human
From the text: as §2, §3, §4, §5, §6

[20] = system: MM-1CB cells; assay: Survival of MM-1CB cells after sequential dipyridamole / interferon β treatment; type: cell-based, human; settings: vs simultaneous administration; cells cultured in dishes (FIG. 11)
Method: Experimental numbers (Exp. Nos.) 1, 2, and 3 were the results obtained under reported cell-culture-conditions. In Exp. Nos. 4 and 5, treatment with DP alone and without IFN β was done during […] of the experiment schedule, respectively. In Exp. No. 6 IFN β treatment alone, without the DP addition, was done after DP treatment alone for the first 24 hours of the experimental schedule; after the DP treatment culture medium was depleted and cells were washed three times with Eagle's minimal essential medium, followed by being cultured with medium containing IFN β.

Q: Which results are given for `OCCN(CCO)c1nc(N2CCCCC2)c2nc(N(CCO)CCO)nc(N3CCCCC3)c2n1` [dipyridamole, 2,6-bis(diethanolamine)-4,8-dipiperidino-pyrimido[5,4-d]pyrimidin]?
A: cellular morphological conditions [1]: showed impairment after the combination treatment; cell morphology [2]: morphologically impaired; cellular morphological conditions [3]: showed impairment after the combination treatment; inhibitory effect on cell proliferation ([4]; dipyridamole alone (FIG. 14)): little inhibitory effect on cell proliferation; enhancement of cell proliferation inhibition induced by interferon ([4]; with interferon β 100-1000 IU/ml, 6 days (FIG. 14)): can enhance cell proliferation inhibition induced by interferon; activity of plasminogen activator-like protease [5]: induced after a few minutes of treatment; potentiation of PALA [6]: can potentiate the activity of N-phosphoracetyl-L-aspartate (PALA) in vitro and in vivo; enhancement of HuIFN inhibitory effect on DNA synthesis [7]: remarkably enhanced; DNA damage under alkaline assay conditions [8]: resulted in damaged DNA; also recorded: the most part DNA shifted into lower molecular mass; dose that enhances the interferon effect in vitro [9]: less than 1 μM; antitumor activity of MTX [10]: not dramatically improved; toxicity of methotrexate (MTX) [11]: enhanced the toxicity of methotrexate (MTX); interferon induction in mice [12]: induced interferon in mice after I.V. administration; block of the salvage pathway of DNA synthesis [13]: effective blocker of the salvage pathway of DNA synthesis; antitumor activity of MTX [14]: not dramatically improved; metastatic effect [15]: potential metastatic effect; cytotoxicity of its own ([16]; dipyridamole alone): no cytotoxicity of its own; PALA activity ([16]; with PALA): increased PALA activity; synergistic inhibitory activity, susceptibility [17]: high susceptibility to the synergistic inhibitory activity; effect with HuIFN-α, -β and -γ ([18]; 0.1 μM dipyridamole continuously, 6 days (FIG. 3A)): additive effect with HuIFN-α, -β and -γ was also observed; inhibition of cell growth ([18]; 0.1 μM dipyridamole with 10 units/ml HuIFN-β, more than 4 days (FIG. 1)): considerable inhibition of cell growth; suppression of cell proliferation ([18]; agent alone: 10 units/ml HuIFN-β or 0.1 μM dipyridamole (FIG. 1)): only slightly effective in suppressing cell proliferation; lower concentration effective in enhancing the anticellular effect of HuIFN ([18]; with HuIFN, 6 days (FIG. 3B)): 0.01 µM; synergistic inhibitory activity, susceptibility ([19]; HuIFN and dipyridamole (FIG. 4)): high susceptibility to the synergistic inhibitory activity; inhibition of cell replication, combination ([19]; HuIFN-α with simultaneous dipyridamole (FIG. 4)): inhibition of cell replication was enhanced; influence on KT cell replication ([19]; dipyridamole alone, less than 0.1 μM (FIG. 4B)): scarcely influenced KT cell replication; concentration that enhances the inhibitory effect of HuIFN-α ([19]; with HuIFN-α (FIG. 4B)): less than 0.1 μM; effect of dipyridamole pretreatment on proliferation [20]: more effective than a simultaneous administration of the two agents
